# Patent US11225470B2, “Tetrazolinone compounds and its use as pest control agents” (SUMITOMO CHEMICAL COMPANY, LIMITED, priority 2016, dated 2022)
# System: tomato early blight fungi (Alternaria solani; QoI resistant strain, cytochrome b phenylalanine 129 mutated to leucine)
# Format: in vivo
# Details: 200 ppm foliar spray, inoculation after 1 day; tomato cv PATIO
structure (smiles),measurement,value
CCC(=NN=C(C)c1ccc2ccccc2c1)OCc1c(C)cccc1-n1nnn(C)c1=O [cf1],lesion area compared to the lesion area in an untreated tomato,≥ 70%
